The results in this text go back to patent US6423689B1, “Peptidyl calcium channel blockers” (Warner-Lambert Company, priority 1997, dated 2002).

pIC50: −log10 of the molar value.

The assay deals with T1, N-type Ca2+ channels in IMR-32 cells (Homo sapiens, UniProt Q00975).
T1 construct: host or cells: IMR-32 cells, differentiated with dibutyryl cAMP and bromodeoxyuridine
Put plainly: Inhibition of N-type calcium flux in IMR-32 cells (Indo-1 fluorescence, nitrendipine present). The class given is cell-based. The following applies: for inhibition at 1 µM / inhibition at 10 µM: IMR-32; for pIC50: IMR-32 cells, 5 μM nitrendipine, K+ depolarization. The method in brief:
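With L-type flux blocked by 5 μM nitrendipine, N-type Ca2+ entry was read as the Indo-1 emission ratio (400/490 nm, excitation 350 nm) at 30° C after KCl depolarization.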
A general note: Calcium assays in cells follow changes in intracellular calcium, usually with a dye or a luminescent sensor.

T1 sequence (Q00975 whole entry): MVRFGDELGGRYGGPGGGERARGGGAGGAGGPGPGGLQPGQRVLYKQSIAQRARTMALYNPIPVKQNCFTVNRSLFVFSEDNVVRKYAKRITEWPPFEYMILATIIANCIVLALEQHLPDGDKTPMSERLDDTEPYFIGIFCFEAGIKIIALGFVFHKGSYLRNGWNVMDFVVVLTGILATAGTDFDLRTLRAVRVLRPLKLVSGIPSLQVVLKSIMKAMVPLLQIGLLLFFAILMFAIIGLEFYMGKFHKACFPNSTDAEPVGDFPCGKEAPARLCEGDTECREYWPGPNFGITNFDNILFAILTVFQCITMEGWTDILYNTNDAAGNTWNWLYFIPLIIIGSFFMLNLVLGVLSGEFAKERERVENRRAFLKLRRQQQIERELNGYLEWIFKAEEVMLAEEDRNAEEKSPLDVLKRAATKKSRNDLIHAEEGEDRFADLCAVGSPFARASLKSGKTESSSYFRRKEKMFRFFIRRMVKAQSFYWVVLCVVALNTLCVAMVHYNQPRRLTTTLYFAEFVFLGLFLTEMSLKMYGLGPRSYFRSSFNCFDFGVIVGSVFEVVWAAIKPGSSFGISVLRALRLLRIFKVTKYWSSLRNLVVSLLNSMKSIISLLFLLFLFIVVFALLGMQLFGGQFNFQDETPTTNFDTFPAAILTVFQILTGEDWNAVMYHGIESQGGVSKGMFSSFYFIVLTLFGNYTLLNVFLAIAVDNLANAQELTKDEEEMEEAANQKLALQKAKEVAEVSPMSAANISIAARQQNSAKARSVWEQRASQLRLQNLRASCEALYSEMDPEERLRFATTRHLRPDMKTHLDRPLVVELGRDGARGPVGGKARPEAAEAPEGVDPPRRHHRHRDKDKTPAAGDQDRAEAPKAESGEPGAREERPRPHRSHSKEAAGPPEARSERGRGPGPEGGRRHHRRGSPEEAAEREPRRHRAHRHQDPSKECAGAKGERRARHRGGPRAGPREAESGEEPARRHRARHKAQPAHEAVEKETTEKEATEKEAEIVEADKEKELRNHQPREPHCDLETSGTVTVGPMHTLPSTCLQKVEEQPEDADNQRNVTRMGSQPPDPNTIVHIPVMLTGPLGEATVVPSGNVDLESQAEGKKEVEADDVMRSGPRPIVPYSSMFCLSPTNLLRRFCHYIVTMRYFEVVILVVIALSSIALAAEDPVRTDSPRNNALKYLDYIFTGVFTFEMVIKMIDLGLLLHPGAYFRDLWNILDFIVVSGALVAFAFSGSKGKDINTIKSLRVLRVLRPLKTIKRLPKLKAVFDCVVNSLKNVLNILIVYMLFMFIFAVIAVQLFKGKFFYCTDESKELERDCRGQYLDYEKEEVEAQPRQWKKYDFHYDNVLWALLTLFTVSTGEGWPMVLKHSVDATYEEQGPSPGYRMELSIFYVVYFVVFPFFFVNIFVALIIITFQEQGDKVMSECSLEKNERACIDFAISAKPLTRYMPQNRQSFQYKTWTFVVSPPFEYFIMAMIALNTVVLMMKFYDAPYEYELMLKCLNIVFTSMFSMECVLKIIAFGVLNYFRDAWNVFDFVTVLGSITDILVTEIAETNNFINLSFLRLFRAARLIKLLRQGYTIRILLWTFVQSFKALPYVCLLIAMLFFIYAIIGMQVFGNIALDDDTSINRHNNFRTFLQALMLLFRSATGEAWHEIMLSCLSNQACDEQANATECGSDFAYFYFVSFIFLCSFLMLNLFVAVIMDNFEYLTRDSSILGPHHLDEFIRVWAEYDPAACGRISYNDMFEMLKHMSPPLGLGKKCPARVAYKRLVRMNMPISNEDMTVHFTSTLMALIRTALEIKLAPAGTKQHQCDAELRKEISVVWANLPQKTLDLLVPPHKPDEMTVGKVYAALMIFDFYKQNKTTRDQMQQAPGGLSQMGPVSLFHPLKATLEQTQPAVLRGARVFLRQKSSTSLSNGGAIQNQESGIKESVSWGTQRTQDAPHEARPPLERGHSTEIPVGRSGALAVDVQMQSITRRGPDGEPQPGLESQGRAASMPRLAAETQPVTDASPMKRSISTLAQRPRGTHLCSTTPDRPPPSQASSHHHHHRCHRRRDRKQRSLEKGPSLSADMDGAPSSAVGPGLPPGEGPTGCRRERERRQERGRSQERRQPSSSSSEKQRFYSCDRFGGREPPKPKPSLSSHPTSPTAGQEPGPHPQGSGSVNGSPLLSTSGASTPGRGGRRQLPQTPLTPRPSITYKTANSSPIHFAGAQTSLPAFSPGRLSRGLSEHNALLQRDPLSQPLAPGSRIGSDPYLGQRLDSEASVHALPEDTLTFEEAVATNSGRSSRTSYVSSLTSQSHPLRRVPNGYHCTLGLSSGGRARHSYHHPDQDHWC
T1 sequence (P54289 25-956 partner limits assumed): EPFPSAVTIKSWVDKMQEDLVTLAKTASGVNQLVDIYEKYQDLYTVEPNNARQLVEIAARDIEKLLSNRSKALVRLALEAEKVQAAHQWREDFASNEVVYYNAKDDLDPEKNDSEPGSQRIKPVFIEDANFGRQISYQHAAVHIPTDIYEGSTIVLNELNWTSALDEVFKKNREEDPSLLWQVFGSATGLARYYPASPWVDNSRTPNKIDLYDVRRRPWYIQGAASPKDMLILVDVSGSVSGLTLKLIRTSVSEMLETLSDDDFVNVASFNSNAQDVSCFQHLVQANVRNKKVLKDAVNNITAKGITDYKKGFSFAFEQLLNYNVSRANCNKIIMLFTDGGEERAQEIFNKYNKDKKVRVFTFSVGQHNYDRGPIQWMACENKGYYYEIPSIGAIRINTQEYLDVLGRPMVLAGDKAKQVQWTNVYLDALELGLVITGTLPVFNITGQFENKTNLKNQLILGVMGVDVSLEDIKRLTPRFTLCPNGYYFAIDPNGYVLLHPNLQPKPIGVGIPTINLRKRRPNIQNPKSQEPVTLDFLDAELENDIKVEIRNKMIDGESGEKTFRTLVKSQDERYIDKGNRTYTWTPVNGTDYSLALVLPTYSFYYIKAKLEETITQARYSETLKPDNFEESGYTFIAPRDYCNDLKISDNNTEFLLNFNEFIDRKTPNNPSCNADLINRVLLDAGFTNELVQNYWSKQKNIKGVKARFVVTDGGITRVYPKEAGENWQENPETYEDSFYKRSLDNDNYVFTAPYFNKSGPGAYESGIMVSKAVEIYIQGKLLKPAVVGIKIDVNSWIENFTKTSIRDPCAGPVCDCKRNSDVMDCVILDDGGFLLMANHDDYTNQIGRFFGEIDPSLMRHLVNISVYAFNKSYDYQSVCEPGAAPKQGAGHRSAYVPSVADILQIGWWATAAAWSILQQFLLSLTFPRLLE
T1 sequence (P54289 957-1103 partner limits assumed): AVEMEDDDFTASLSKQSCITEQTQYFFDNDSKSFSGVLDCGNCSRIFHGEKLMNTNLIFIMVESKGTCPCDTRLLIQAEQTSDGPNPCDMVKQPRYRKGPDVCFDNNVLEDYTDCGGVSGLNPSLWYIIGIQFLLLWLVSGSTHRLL
T1 sequence (P54284 whole entry partner): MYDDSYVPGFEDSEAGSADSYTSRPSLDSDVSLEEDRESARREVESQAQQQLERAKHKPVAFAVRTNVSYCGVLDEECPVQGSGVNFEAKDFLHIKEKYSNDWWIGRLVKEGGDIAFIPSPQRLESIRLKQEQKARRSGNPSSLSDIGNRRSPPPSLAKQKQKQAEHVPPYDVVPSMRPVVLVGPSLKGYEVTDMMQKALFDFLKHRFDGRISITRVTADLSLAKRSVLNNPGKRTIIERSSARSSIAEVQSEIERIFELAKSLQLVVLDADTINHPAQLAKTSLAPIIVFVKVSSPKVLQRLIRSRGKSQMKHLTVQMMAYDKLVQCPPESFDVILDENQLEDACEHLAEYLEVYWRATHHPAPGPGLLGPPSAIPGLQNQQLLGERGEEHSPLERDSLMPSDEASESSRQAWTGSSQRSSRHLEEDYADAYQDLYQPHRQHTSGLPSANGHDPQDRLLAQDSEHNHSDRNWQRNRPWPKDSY

With `CC(C)CC(NC(=O)N1CCCCCC1)C(=O)NC(Cc1ccc(OCc2ccccc2)cc1)C(=O)NCC(O)CN` (stereo not drawn) [Example 219, Azepane-1-carboxylic acid {1-[1-(3-amino-2-hydroxy-propylcarbamoyl)-2-(4-benzyloxy-phenyl)-ethylcarbamoyl]-3-methyl-butyl}-amide], the inhibition (commonly the drop in the measured response relative to a control, in per cent) at 1 µM was 6% and the inhibition at 10 µM is 23%. Turning to `CC(C)CC(NC(=O)N1CCCCCC1)C(=O)NC(Cc1ccc(OCc2ccccc2)cc1)C(=O)NC(CO)C(O)c1ccccc1` (stereo not drawn) [Example 227, [S-(R*,R*)]-Azepane-1-carboxylic acid {1-[2-(4-benzyloxy-phenyl)-1-(2-hydroxy-1-hydroxymethyl-2-phenyl-ethylcarbamoyl)-ethylcarbamoyl]-3-methyl-butyl}-amide], the “Inhibition of Calcium Flux in IMR-32 Cells % Inhibition at 1 μM” value is given as 19% and the “Inhibition of Calcium Flux in IMR-32 Cells % Inhibition at 10 μM” value turned out to be 86%. As to `CC(C)CC(NC(=O)N1CCCCCC1)C(=O)NC(Cc1ccc(OCc2ccccc2)cc1)C(=O)NC(C)CN(C)C` (stereo not drawn) [Example 230, Azepane-1-carboxylic acid {1-[2-(4-benzyloxy-phenyl)-1-(2-dimethylamino-1-methyl-ethylcarbamoyl)-ethylcarbamoyl]-3-methyl-butyl}-amide], the inhibition at 1 µM worked out at 34% and the inhibition at 10 µM stood at 81%. The like results for `CC(C)CC(NC(=O)N1CCCCCC1)C(=O)NC(Cc1ccc(OCc2ccccc2)cc1)C(=O)N1CCCC(O)C1` (stereo not drawn) [Example 234, Azepane-1-carboxylic acid {1-[1-(4-benzyloxy-benzyl)-2-(3-hydroxy-piperidin-1-yl)-2-oxo-ethylcarbamoyl]-3-methyl-butyl}-amide] were, in that order, 32% and 67%.

Take `CC(C)CC(NC(=O)N1CCCCCC1)C(=O)NC(Cc1ccc(OCc2ccccc2)cc1)C(=O)NC(C)CNCC(C)N` (stereo not drawn) [Example 239, Azepane-1-carboxylic acid {1-[1-[2-(2-amino-propylamino)-1-methyl-ethylcarbamoyl]-2-(4-benzyloxy-phenyl)-ethylcarbamoyl]-3-methyl-butyl}-amide]: the inhibition at 1 µM came out at 22% and the inhibition at 10 µM stood at 23%. `CC(C)C[C@H](NC(=O)N1CCCCCC1)C(=O)N[C@@H](Cc1ccc(OCc2ccccc2)cc1)C(=O)NCC(C)NC(C)C` (stereo partly drawn) [Example 242]: the “Inhibition of Calcium Flux in IMR-32 Cells % Inhibition at 1 μM” value was 23%. For `CCC(C)NC(=O)C(Cc1ccc(OCc2ccccc2)cc1)NC(=O)C(CC(C)C)NC(=O)N1CCCCCC1` (stereo not drawn) [Example 243, Azepane-1-carboxylic acid {1-[2-(4-benzyloxy-phenyl)-1-sec-butylcarbamoyl-ethylcarbamoyl]-3-methyl-butyl}-amide], the inhibition at 1 µM is 48% and the inhibition at 10 µM turned out to be 89%.

With `CC(=O)N[C@H]1CCN(C(=O)[C@H](Cc2ccc(OCc3ccccc3)cc2)NC(=O)[C@H](CC(C)C)NC(=O)N2CCCCCC2)C1` [Example 244], the “Inhibition of Calcium Flux in IMR-32 Cells % Inhibition at 1 μM” value was 24% and the “Inhibition of Calcium Flux in IMR-32 Cells % Inhibition at 10 μM” value was found to be 73%. Consider `CCC(COC)NC(=O)C(Cc1ccc(OCc2ccccc2)cc1)NC(=O)C(CC(C)C)NC(=O)N1CCCCCC1` (stereo not drawn) [Example 245, Azepane-1-carboxylic acid {1-[2-(4-benzyloxy-phenyl)-1-(1-methoxymethyl-propylcarbamoyl)-ethylcarbamoyl]-3-methyl-butyl}-amide], for which the inhibition at 1 µM stood at 57% and the inhibition at 10 µM worked out at 89%.

In the case of `CC(C)CC(NC(=O)N1CCCCCC1)C(=O)NC(Cc1ccc(OCc2ccccc2)cc1)C(=O)NCC1CCN(Cc2ccccc2)C1` (stereo not drawn) [Example 250, Azepane-1-carboxylic acid (1-{2-(4-benzyloxy-phenyl)-1-[(1-benzyl-pyrrolidin-3-ylmethyl)-carbamoyl]-ethylcarbamoyl}-3-methyl-butyl)-amide], the pIC50 (in general, the negative decadic logarithm of the IC50, by convention in mol/L) was 6.57. Same read-out and setting: in the case of `CC(C)C[C@H](NC(=O)N1CCCCCC1)C(=O)N[C@@H](Cc1ccc(OCc2ccccc2)cc1)C(=O)N(CCO)Cc1ccccc1` [Example 251, S-(R*,R*)]-Azepane-1-carboxylic acid {1-[1-[benzyl-(2-hydroxy-ethyl)-carbamoyl]-2-(4-benzyloxy-phenyl)-ethylcarbamoyl]-3-methyl-butyl}-amide] it was 6.13; in that of `CC(C)C[C@H](NC(=O)N1CCCCCC1)C(=O)N[C@@H](Cc1ccc(OCc2ccccc2)cc1)C(=O)NCCNCc1ccccc1` [Example 252, [S-(R*,R*)]-Azepane-1-carboxylic acid {1-[1-(2-benzylamino-ethylcarbamoyl)-2-(4-benzyloxy-phenyl)-ethylcarbamoyl]-3-methyl-butyl}-amide], 6.55.

`CC(C)C[C@H](NC(=O)N1CCCCCC1)C(=O)N[C@@H](Cc1ccc(OCc2ccccc2)cc1)C(=O)Nc1cccnc1` [Example 254, [S-(R*,R*)]-Azepane-1-carboxylic acid {1-[2-(4-benzyloxy-phenyl)-1-(pyridin-3-ylcarbamoyl)-ethylcarbamoyl]-3-methyl-butyl}-amide]: the inhibition at 1 µM came out at 39%, the inhibition at 10 µM was 83% and the pIC50 is 5.80. Take `CC(C)C[C@H](NC(=O)N1CCCCCC1)C(=O)N[C@@H](Cc1ccc(OCc2ccccc2)cc1)C(=O)NCCCO` [Example 255, [S-(R*,R*)]-Azepane-1-carboxylic acid {1-[2-(4-benzyloxy-phenyl)-1-(3-hydroxy-propylcarbamoyl)-ethylcarbamoyl]-3-methyl-butyl}-amide]: the negative logarithm of the IC50 (pIC50) is 5.37. For `CC(C)CC(NC(=O)N1CCCCCC1)C(=O)NC(Cc1ccc(OCc2ccccc2)cc1)C(=O)N1CCCC(CO)C1` (stereo not drawn) [Example 256, Azepane-1-carboxylic acid {1-[1-(4-benzyloxy-benzyl)-2-(3-hydroxymethyl-piperidin-1-yl)-2-oxo-ethylcarbamoyl]-3-methyl-butyl}-amide], the pIC50 is 5.82.

Turning to `CC(C)C[C@H](NC(=O)N1CCCCCC1)C(=O)N[C@@H](Cc1ccc(OCc2ccccc2)cc1)C(=O)NC1CCNC1` (stereo partly drawn) [Example 258, [S-(R*,R*)]-Azepane-1-carboxylic acid {1-[2-(4-benzyloxy-phenyl)-1-(pyrrolidin-3-ylcarbamoyl)-ethylcarbamoyl]-3-methyl-butyl}-amide], the pIC50 is 5.44. On the same count and under the same terms, next, `CC(C)C[C@H](NC(=O)N1CCCCCC1)C(=O)N[C@@H](Cc1ccc(OCc2ccccc2)cc1)C(=O)N1CCCNCC1` [Example 259, [S-(R*,R*)]-Azepane-1-carboxylic acid {1-[2-(4-benzyloxy-phenyl)-1-(1,4]diazepane-1-carbonyl)-ethylcarbamoyl]-3-methyl-butyl}-amide]: 5.62. For the molecule `CC(C)C[C@H](NC(=O)N1CCCCCC1)C(=O)N[C@@H](Cc1ccc(OCc2ccccc2)cc1)C(=O)NCC1CCNCC1` [Example 262, [S-(R*,R*)]-Azepane-1-carboxylic acid (1-{-2-(4-benzyloxy-phenyl)-1-[(piperidin-4-ylmethyl)-carbamoyl]-ethylcarbamoyl]-3-methyl-butyl}-amide], the inhibition at 10 µM worked out at 17% and the negative-log IC50 (pIC50) was 4.29. Take `CC(C)C[C@H](NC(=O)N1CCCCCC1)C(=O)N[C@@H](Cc1ccc(OCc2ccccc2)cc1)C(=O)NCc1ccccc1` [Example 263, [S-(R*,R*)]-Azepane-1-carboxylic acid {1-[1-benzylcarbamoyl-2-(4-benzyloxy-phenyl)-ethylcarbamoyl]-3-methyl-butyl}-amide]: the pIC50 is 5.92.
